Measured values from US20060089371A1, “Phenyl or heteroaryl amino alkane derivatives as ip receptor antagonist” (Bayer HealthCare AG, priority 2002, published 2006).

How the values were obtained:
IP receptor = target: T1, IP receptor (Homo sapiens, UniProt P43119); assay: IP receptor binding/cAMP in HEL cells ([3H]-iloprost binding, Assay 1; iloprost-induced cAMP production, Assay 2); details: compounds of about 40 to 90% purity, read-out: In vitro activity grade (IC50 class)
T1 construct: one million cells in 160 μl aliquot of cell suspension were put in a well of 96 well plate; host or cells: HEL 92.1.7 human erythroleukemia cells (whole cells)
Protocol: [Measurement of the [^3H]-iloprost Binding to HEL Cells] (Assay 1)
A human erythloleukemia cell line, HEL 92.1.7, was purchased from American Type Culture Correction and maintained in RPMI-1640 medium (Gibco BRL) supplemented with 10% fetal calf serum (FCS), 2 mM glutamine, 4.5 g/L glucose, 10 mM Hepes, 1 mM sodium pyruvate, 100 U/ml penicillin, and 100 μg/ml streptomycin in a humidified 5% CO2 atmosphere at 37° C. Cells were collected with centrifugation and washed with binding assay buffer (BAB: 50 mM Tris-HCl, 5 mM MgCl2 (pH 7.5)). Cells were suspended at the density of 6.25×10^6 cells/ml in BAB, and one million cells in 160 μl aliquot of cell suspension were put in a well of 96 well plate (Falcon). Then, 20 μl of compound solution, 100 μM of iloprost (for non-specific binding), or buffer alone (total binding), diluted with 1% DMSO in BAB was added. Finally, another 20 μl containing [^3H]-iloprost (0.02 μCi, 0.5-1 pmol) in BAB was added and incubated at room temperature for 30 min with a gentle shaking. Cell suspension was then transferred to a well of MultiScreen plate with GF/C glass filters (Millipore) to harvest cells. Cells were washed twice with 200 μl of ice-cold BAB and the plate was kept at 55° C. for 30 min to dry filters. The filter in the well was punched out to a counting tube and 2 ml of Ultima Gold XR (Packard) was added. [^3H]-radio activity in the filter was measured by a liquid scintillation counter (Beckman, USA).
[Iloprost-Induced cAMP Production Assay in HEL Cells] (Assay 2)
HEL cells were collected with centrifugation and washed with cAMP assay buffer (CAB: Hank's balanced salt solution, 17 mM Hepes, 0.1% bovine serum albumin, 1 mM IBMX, 0.4% DMSO, and 1 mM L-ascorbic acid sodium salt (pH 7.4)). Cells were suspended at the density of 2.5×10^5 cells/ml in CAB, and twenty thousand cells in 80 μl aliquot of cell suspension were put in a well of 96 well plate (Falcon). Then, 10 μl of compound solution diluted with 1% DMSO in CAB or buffer alone was added. The plate was incubated at 37° C. for 30 min. Then, another 10 μl containing 100 nM iloprost in CAB or buffer alone was added and further incubated at 37° C. for 30 min. cAMP content in the well was measured by a cAMP ELISA kit (Applied Biosystems, USA).
The data corresponds to the compounds as yielded by solid phase synthesis and thus to levels of purity of about 40 to 90%. For practical reasons, the compounds are grouped in three classes of activity as follows: IC50=A<0.1 μM≦B<1 μM≦C

T1 sequence (P43119 whole entry): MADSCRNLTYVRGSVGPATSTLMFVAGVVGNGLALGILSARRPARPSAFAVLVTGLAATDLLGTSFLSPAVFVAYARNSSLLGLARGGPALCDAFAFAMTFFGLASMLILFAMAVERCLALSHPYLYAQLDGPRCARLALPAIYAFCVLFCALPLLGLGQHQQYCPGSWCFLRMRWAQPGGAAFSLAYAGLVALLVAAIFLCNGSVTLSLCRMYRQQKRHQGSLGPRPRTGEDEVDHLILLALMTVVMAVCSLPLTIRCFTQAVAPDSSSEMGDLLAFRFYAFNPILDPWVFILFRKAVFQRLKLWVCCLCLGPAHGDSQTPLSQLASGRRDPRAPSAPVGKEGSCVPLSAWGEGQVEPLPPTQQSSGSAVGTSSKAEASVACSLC

Row | melting point | IC50 (IP receptor) [nM] | SMILES
1 | 201 to 204 °C (dec.) | < 100 | CC(C)Oc1ccc(-c2cc(NC(Cc3ccccc3)C(=O)O)ncn2)cc1 (stereo not shown) [Example 2-12]
2 | 203 to 206 °C (dec.) | 100 to 1000 | COc1ccc(-c2cc(NC(Cc3ccccc3)C(=O)O)ncn2)cc1 (stereo not shown) [Example 2-13]
3 | 190 to 193 °C (dec.) | < 100 | O=C(O)C(Cc1ccccc1)Nc1cc(-c2ccc(OCc3cccc(O)c3)cc2)ncn1 (stereo not shown) [Example 2-14]
4 | 210 to 213 °C (dec.) | < 100 | O=C(O)C(Cc1ccccc1)Nc1cc(-c2ccc(OCC3CCC3)cc2)ncn1 (stereo not shown) [Example 2-15]
5 | 214 to 216 °C (dec.) | < 100 | O=C(O)C(Cc1ccccc1)Nc1cc(-c2ccc(OCCc3ccccc3)cc2)ncn1 (stereo not shown) [Example 2-16]
6 | 210 to 213 °C (dec.) | < 100 | CC(C)COc1ccc(-c2cc(NC(Cc3ccccc3)C(=O)O)ncn2)cc1 (stereo not shown) [Example 2-17]
7 | 125 to 128 °C | < 100 | O=C(O)C(Cc1ccccc1)Nc1cc(-c2ccc(OCC3CCCC3)cc2)ncn1 (stereo not shown) [Example 2-20]
8 | 135 to 136 °C (dec.) | < 100 | O=C(O)C(Cc1ccccc1)Nc1cc(-c2ccc(OCc3cccnc3)cc2)ncn1 (stereo not shown) [Example 2-21]
9 | 117 to 120 °C | > 1000 | O=C(O)C(Cc1ccccc1)Nc1cc(-c2ccc(OCCN3CCCC3)cc2)ncn1 (stereo not shown) [Example 2-22]
10 | 85 to 88 °C | < 100 | O=C(O)C(Cc1ccccc1)Nc1cc(-c2ccc(OCCc3cccnc3)cc2)ncn1 (stereo not shown) [Example 2-23]
11 | 190 to 193 °C (dec.) | < 100 | COCCOc1ccc(-c2cc(NC(Cc3ccccc3)C(=O)O)ncn2)cc1 (stereo not shown) [Example 2-24]
12 | 101 to 104 °C | < 100 | O=C(O)C(Cc1ccccc1)Nc1cc(-c2ccc(OCCCc3ccccc3)cc2)ncn1 (stereo not shown) [Example 2-25]
13 | 120 to 122 °C (dec.) | < 100 | O=C(O)C(Cc1ccccc1)Nc1cc(-c2ccc(OCCc3ccccn3)cc2)ncn1 (stereo not shown) [Example 2-26]
14 | 113 to 115 °C | < 100 | O=C(O)C(Cc1ccccc1)Nc1cc(-c2ccc(OCCc3ccncc3)cc2)ncn1 (stereo not shown) [Example 2-27]
15 | 120 to 123 °C | < 100 | O=C(O)C(Cc1ccccc1)Nc1cc(-c2ccc(OCc3ccccn3)cc2)ncn1 (stereo not shown) [Example 2-28]
16 | 110 to 113 °C | < 100 | O=C(O)C(Cc1ccccc1)Nc1cc(-c2ccc(OCc3ccncc3)cc2)ncn1 (stereo not shown) [Example 2-29]
17 | 169 °C | < 100 | O=C(O)C(Cc1cccc(O)c1)Nc1cc(-c2ccc(OCc3ccccc3)cc2)ncn1 (stereo not shown) [Example 2-30]
18 | 109 to 112 °C | < 100 | O=C(O)C(Cc1ccccc1)Nc1cc(-c2ccc(OCC(F)(F)F)cc2)ncn1 (stereo not shown) [Example 2-31]
19 | 84 to 87 °C | < 100 | O=C(O)C(Cc1ccccn1)Nc1cc(-c2ccc(OCc3ccccc3F)cc2)ncn1 (stereo not shown) [Example 2-32]
20 | 92 to 95 °C | < 100 | O=C(O)C(Cc1ccccn1)Nc1cc(-c2ccc(OCc3cccc(F)c3)cc2)ncn1 (stereo not shown) [Example 2-33]
21 | 85 to 90 °C | < 100 | CCCCC(Nc1cc(-c2ccc(OCc3ccccc3F)cc2)ncn1)C(=O)O (stereo not shown) [Example 2-34]

Row | melting point | IC50 (IP receptor) [nM] | SMILES
22 | 181 to 186 °C | < 100 | CCCCC(Nc1cc(-c2ccc(OCc3cccc(F)c3)cc2)ncn1)C(=O)O (stereo not shown) [Example 2-35]
23 | 52 to 53 °C | < 100 | O=C(O)C(Cc1ccccn1)Nc1cc(-c2ccc(OCCc3ccccc3)cc2)ncn1 (stereo not shown) [Example 2-38]
24 | 90 to 92 °C | < 100 | O=C(O)C(Cc1ccccn1)Nc1cc(-c2ccc(OCc3cc(F)cc(F)c3)cc2)ncn1 (stereo not shown) [Example 2-39]
25 | 86 to 88 °C | < 100 | CCCCC(Nc1cc(-c2ccc(OCCc3ccccc3)cc2)ncn1)C(=O)O (stereo not shown) [Example 2-40]
26 | 115 to 118 °C | < 100 | CCCCC(Nc1cc(-c2ccc(OCc3cccc(OC)c3)cc2)ncn1)C(=O)O (stereo not shown) [Example 2-44]
27 | 88 to 93 °C | < 100 | CCCCC(Nc1cc(-c2ccc(OCc3cc(OC)cc(OC)c3)cc2)ncn1)C(=O)O (stereo not shown) [Example 2-45]
28 | 141 to 147 °C | < 100 | CCCCC(Nc1cc(-c2ccc(OCc3cc(F)cc(F)c3)cc2)ncn1)C(=O)O (stereo not shown) [Example 2-46]
29 | 89 to 92 °C | > 1000 | O=C(O)C(Cc1ccccc1)Nc1cncc(-c2ccc(OCc3ccccc3)cc2)n1 (stereo not shown) [Example 3-2]
30 | 81 to 84 °C | > 1000 | O=C(O)C(Cc1ccccc1)Nc1cccc(-c2ccc(OCc3ccccc3)cc2)n1 (stereo not shown) [Example 3-3]
31 | 194 to 196 °C | < 100 | O=C(O)C(Cc1ccccc1)Nc1cc(-c2ccc(OCc3ccccc3)cc2)ccn1 (stereo not shown) [Example 3-4]
32 | 143.1 °C | < 100 | CN(C)CCOc1cccc(C[C@H](Nc2cc(-c3ccc(OCc4ccccc4)cc3)ncn2)C(=O)O)c1 [Example 4-1, N-{6-[4-(Benzyloxy)phenyl]pyrimidin-4-yl}-3-[2-(dimethylamino)ethoxy]phenylalanine]
33 | 153.8 °C | < 100 | NCCOc1cccc(C[C@H](Nc2cc(-c3ccc(OCc4ccccc4)cc3)ncn2)C(=O)O)c1 [Example 5-1, 3-(2-Aminoethoxy)-N-{6-[4-(benzyloxy)phenyl]pyrimidin-4-yl}phenylalanine]
34 | 214 to 216 °C (dec.) | < 100 | O=C(O)[C@H](Cc1ccccc1)Nc1cc(-c2ccc(/C=C/c3ccccc3)cc2)ncn1 [Example 7-1, N-(6-{4-[(E)-2-Phenylvinyl]phenyl}pyrimidin-4-yl)phenylalanine]
35 | 215 to 218 °C (dec.) | < 100 | O=C(O)[C@H](Cc1ccccc1)Nc1cc(-c2ccc(C#Cc3ccccc3)cc2)ncn1 [Example 9-1, N-{6-[4-(Phenylethynyl)phenyl]pyrimidin-4-yl}phenylalanine]
36 | 217 to 220 °C (dec.) | < 100 | O=C(O)[C@H](Cc1ccccc1)Nc1cc(-c2ccc(/C=C\c3ccccc3)cc2)ncn1 [Example 10-1, N-(6-{4-[(Z)-2-Phenylvinyl]phenyl}pyrimidin-4-yl)phenylalanin]
37 | 139 to 142 °C (dec.) | < 100 | O=C(O)C(Cc1ccccc1)Nc1cc(-c2ccc(-c3ccc4c(c3)OCO4)cc2)ncn1 (stereo not shown) [Example 11-2]
38 | 135 to 137 °C (dec.) | < 100 | CSc1ccc(-c2ccc(-c3cc(NC(Cc4ccccc4)C(=O)O)ncn3)cc2)cc1 (stereo not shown) [Example 11-3]
39 | 112 to 114 °C (dec.) | < 100 | COc1cccc(-c2ccc(-c3cc(NC(Cc4ccccc4)C(=O)O)ncn3)cc2)c1 (stereo not shown) [Example 11-4]
40 | 130 to 132 °C (dec.) | < 100 | O=C(O)C(Cc1ccccc1)Nc1cc(-c2ccc(-c3ccc4ccccc4c3)cc2)ncn1 (stereo not shown) [Example 11-5]
41 | 124 to 126 °C (dec.) | 100 to 1000 | O=C(O)C(Cc1ccccc1)Nc1cc(-c2ccc(-c3cccc(-c4ccccc4)c3)cc2)ncn1 (stereo not shown) [Example 11-6]
